Reference: paper PMC11513854, “De novo GTP synthesis is a metabolic vulnerability for the interception of brain metastases” (Cell Reports Medicine, 2024)
pIC50: −log10 of the molar value.

Experiments:
lung-BMIC line (BT478) = test: Dose-response assay, PrestoBlue; type: cell-based, human; conditions: for pIC50: Homo sapiens, BT478, 72-h treatment, PrestoBlue, N/A, not applicable, read-out: Lung-BM IC50
Method: For preliminary drug screening, drugs were plated at a concentration of 10 μM in a 96-well plate, in triplicate at a density of 1000 cells/well, and incubated at 37°C with a humidified atmosphere of 5% CO2 for three days. Vehicle controls for cell death are used in each functional experiment. Following treatment, PrestoBlue (20 μL, Invitrogen), a resazurin-based cell viability reagent and fluorescence indicator of cell metabolism, was added to each well to estimate proliferation approximately 2 h prior to measuring fluorescence intensity via FLUOstar Omega Fluorescence 556 Microplate reader (BMG LABTECH) at an excitation and emission wavelength of 540 nm and 590 nm, respectively. Results were analyzed using Omega analysis software.
Dose-response assays were conducted using the same protocol apart from drugs being plated using 2-fold serial dilutions (20 μM - 39 nM) as previously described.[66] The half maximal inhibitory concentration (IC50) is determined by plotting percent cell viability by the logarithmic concentration of drug. IC80 concentrations will be used for subsequent functional assays (cell proliferation, sphere formation), as determined by the following formula: ICF=100−F/F^1/H×IC50 where F = fraction of maximal response and H = hill slope.

lung-BMICs = test: Intracranial injection of lung-BMICs, daily oral gavage treatment; type: in vivo, mice; conditions: 100 mg/kg daily oral gavage from 24 h after injection; log rank n.s. [MPA], p = 0.0005 [Compound 3]
Method: The cells were injected intracranially to ensure that any survival benefit would be due to the compounds crossing the BBB and targeting BMICs in the brain.
All experimental procedures involving animal work has been reviewed and approved by McMaster University Animal Research Ethics Board. Non-obese diabetic-severe combined immunodeficient IL2r γ ^null (NSG) mice are used for all experiments. Equal numbers of male and female mice were used for all experiments. Healthy mice were 6–8 weeks at time of use. Mice are anesthetized by gas anesthesia using isoflurane (4% induction, 2.5% maintenance) before procedure. Cells were engineered to express firefly luciferase and were injected intracardially, orthotopically, or intracranially as previously described.[13]^,[14]^,[63]^,[64]^,[65] […] Mice are monitored weekly for signs of illness until endpoint.

MDR1-MDCKII cells = test: Bi-directional permeability via MDR1-MDCKII cells; type: in vitro ADME
Method: (§1) MDR1-MDCKII permeability assays were performed by Wuxi AppTec Co. Briefly, MDR1-MDCK1 cells were seeded onto polycarbonate membranes in 96-well insert system plates and allowed to develop into monolayers. […] The plate was incubated for 2.5 h (37°C, 5% CO2) and the media was sampled on either side and the compound present was quantified by LC-MS/MS and the concentrations were used to calculate the efflux ratio. Digoxin (10 μM), nadolol (2 μM), and metoprolol (2 μM) were used as controls.

MDR1 = test: Bi-directional permeability via MDR1-MDCKII cells; type: in vitro ADME; conditions: dog, MDCK-MDR1, pH 7.4; 2 μM (digoxin 10 μM), 2.5 h
Method: as §1

[1] = tested on: BT478 and BT530 tumor cells; test: Dose-response with exogenous guanine supplementation; type: cell-based, human; conditions: guanine 12 μM in culture media
Excerpt: Created with BioRender.com. […] Comparisons were made via a two-tailed unpaired t test, n = 4 technical replicates, p value is indicated. N.s., not significant, ∗∗∗∗ = p < 0.0001. […] Comparisons were made via a two-tailed unpaired t test, n = 4 technical replicates. N.s., not significant. […] Data are presented as mean ± SD from 4 technical replicates. (E) Immunoblot confirmation of IMPDH (IMPDH1 + IMPDH2) knockout (KO) in patient-derived lung-BMICs. Cropped from single full blot. (F) Time-course proliferation assays of AAVS1 and IMPDH KO BT478 and BT530 cells. Comparisons were made via a two-tailed unpaired t test. Data are presented as mean ± SD from 4 technical replicates, ∗∗∗∗ = p < 0.0001. (G) Representative bar graphs depicting the sphere count per 200 cells of AAVS1 vs. IMPDH KO cells. Comparisons were made via a two-tailed unpaired t test, data are presented as mean ± SD from 4 technical replicates, ∗∗∗∗ = p < 0.0001. (H) Kaplan-Meier curves showing the overall survival probability (from primary cancer diagnosis to death) in a cohort of 30 patients with lung carcinoma who developed BM, for IMPDH2 very high vs. very low expression (1st and 3rd quartiles cutoff values: <114.86 and >210.74). The Cox regression model for survival analysis was used, p values (p) are shown. […]

IMPDH KO BT478 cells = test: Dose-response assays using AAVS1 and IMPDH KO cells; type: cell-based, human; conditions: IMPDH1 and IMPDH2 knocked out
Excerpt: In parallel, we knocked out the safe-harbor locus, AAVS1, as a control cell line. Knockouts were validated by western blot (Figures 5E and S4D). Loss of IMPDH led to tumor cell death within 1 week of knockout (Figure 5F).
Guide RNAs (gRNAs) targeting AAVS1 (5′-[…]-3′) and IMPDH1 (5′- […]-3′) and IMPDH2 (5′-a[…]-3′) were obtained from TKOv3[76] and cloned into a single-gRNA lentiCRISPRv2 construct (Addgene 52961). Sequences were verified using Sanger sequencing. Each plasmid was packaged independently into lentivirus using second-generation packaging constructs as described previously.[77] BMICs were infected with lentivirus containing single-gRNA lentiCRISPRv2 constructs targeting AAVS1 or IMPDH1 or IMPDH2 (three gRNAs). Twenty-four hours post-infection, virus-containing media was replaced with fresh media containing puromycin (1–2 μg/mL) (ThermoFisher, Cat#A1113803) for 48–72 h. The knockout efficiency was validated by Western Blotting for evaluation of IMPDH protein expression.

Structure (SMILES)	selectivity for BMICs compared to normal brain cells (lung-BMIC line (BT478); BT478, MDA-MB-231 Br, BT673 vs neural stem cells, 72 h)	pIC50 (lung-BMIC line (BT478))	survival advantage (lung-BMICs)	Rank of Papp (MDR1-MDCKII cells)	permeability for entering the brain (MDR1-MDCKII cells; MDCK-MDR1 cell monolayer model)	substrate for P-glycoprotein (ABCB1) (MDR1-MDCKII cells; MDCK-MDR1 cell monolayer model)	Papp A→B at 2.5 h, 2 μM (MDR1) [×10⁻⁶ cm/s]	Papp B→A at 2.5 h, 2 μM (MDR1) [×10⁻⁶ cm/s]	efflux ratio at 2.5 h, 2 μM (MDR1)	BMIC viability with exogenous guanine supplementation [1]	anti-BMIC activity following IMPDH knockout (IMPDH KO BT478 cells)
COc1c(C)c2c(c(O)c1C/C=C(\C)CCC(=O)OCCN1CCCC1)C(=O)OC2 [Compound 3]	retained MPA’s therapeutic window	4.82	significant survival advantage	High	high permeability	not significant substrates	14.8	12.5	0.848	rescued BMIC viability	lose their anti-BMIC activity
COc1c(C)c2c(c(O)c1C/C=C(\C)CCC(=O)O)C(=O)OC2 [MPA, Mycophenolic acid]	–	5.44	no survival advantage	–	–	not significant substrates	26	10	–	rescued BMIC viability	lose their anti-BMIC activity
